Reference: US20240076347A1, “METHODS FOR PREVENTING FUNGAL INFECTIONS” (Cidara Therapeutics, Inc., priority 2016, published 2024)
Like-named read-outs stand apart in the source and are kept apart here. Numbered stars: 1 amine (or outer) side, 2 acyl side, 3 side chain; on linkers, the order of the positions; unused ones are H or OH. Bridge positions count the residues as written; N and C are the ends. Square brackets hold non-standard residues; d marks the D form. Peptide text beside a SMILES is read from it. * marks the point of attachment. ξ: configuration not given here. Orn(4R-OH,5R-OCH2CH2NMe3+) = C[N+](C)(C)CCO[C@@H](N[*:3])[C@H](O)C[C@H](N[*:1])C(=O)[*:2]; pTerphenylCO(4''-OnC5H11) = CCCCCOc1ccc(-c2ccc(-c3ccc(C(=O)*)cc3)cc2)cc1; hTyr(3S-OH,4S-OH) = N[C@H](C(=O)O)[C@H](O)[C@@H](O)c1ccc(O)cc1; X1 = C[C@H]1CN([*:1])C(C(=O)[*:2])C1O; Hyp = O=C(O)[C@@H]1C[C@@H](O)CN1; ξT = CC(O)C(N)C(=O)O

Tests used:
[1] = assay type: in vivo, Wistar rats
Procedure: Endpoints. The rats were monitored at a frequency appropriate for their clinical condition. Rat weights were recorded at least once daily to ensure animals remained within ethical limits.
Reduction in weight and general loss of condition due to estradiol treatment are also typical in this rat model. Colonization with C. albicans was determined by quantitative culture of daily vaginal lavage samples. Rats were euthanized 9 days post infection and C. albicans determined by quantitative culture of vaginal tissue (including uterine horns).

[2] = Monkey pharmacokinetics, SC and IV administration; assay type: in vivo, cynomolgus monkeys; details: for half-life / AUC(0-t) / Cmax / Tmax / AUC(0-inf): cynomolgus monkey, plasma
Procedure: (§1) Therefore, only local tolerability (and PK) of CD101 by SC administration required evaluation. […] Plasma concentrations were then quantified by liquid chromatography with tandem mass spectrometric detection (LC-MS/MS). Bioavailability from SC dosing was calculated by comparing the calculated area under the concentration-time profile (AUC) from SC against the AUC from IV administration of the same dose.

[3] = tested on: A. fumigatus clinical isolates; details: SENTRY surveillance (Pfaller, et al 2017); cited from earlier work
C. albicans = assay: In vitro susceptibility testing (CLSI M27-A3); assay type: cell-based; details: Candida albicans, 24 h
Procedure: Strains. Ten clinical Candida strains were used for the in vivo treatment studies, including four C. albicans, three C. glabrata, and three C. parapsilosis strains (Table 18). This group was selected to encompass phenotypic variability in susceptibility to triazoles and echinocandins and based on similar fitness in the animal model as defined by the amount of growth in control animals over 24 h. The organisms were maintained, grown, and quantified on Sabouraud's dextrose agar (SDA) plates.
In vitro susceptibility testing. All isolates were tested in accordance with the standards in CLSI document M27-A3. The MICs were determined visually after 24 h of incubation as the lowest concentration of drug that causes a significant diminution (≥50%) of growth compared to controls. MICs were determined on three separate occasions in duplicate.

[4] = Monkey SC tolerability study; assay type: in vivo, cynomolgus monkeys
Procedure: as §1
Therefore, a separate study was designed to evaluate the tolerability of a SC dose of CD101 as a highly concentrated solution (100 mg/mL; 30 mg/kg) in two cynomolgus monkeys. […] The drug reaches a maximum concentration within a few hours then remains nearly constant over the course of 10 days.

[5] = both sexes, sc, Subcutaneous, 30 mg/kg
[6] = female, animal 9707, F, 30 mg/kg SC single dose
[7] = male, animal 9697, M, 30 mg/kg SC single dose

CCCCCOc1ccc(-c2ccc(-c3ccc(C(=O)N[C@H]4C[C@@H](O)[C@@H](OCC[N+](C)(C)C)NC(=O)C5C(O)[C@@H](C)CN5C(=O)[C@H]([C@@H](C)O)NC(=O)[C@H]([C@H](O)[C@@H](O)c5ccc(O)cc5)NC(=O)[C@@H]5C[C@@H](O)CN5C(=O)C(C(C)O)NC4=O)cc3)cc2)cc1 (stereo partly drawn) [CD101] ({pTerphenylCO(4''-OnC5H11)}-[Orn(4R-OH,5R-OCH2CH2NMe3+)][ξT][Hyp][hTyr(3S-OH,4S-OH)]T[X1]; lactam 1-C)
tolerability ([1]; all treatment doses and durations): well tolerated with no adverse events observed | weight loss ([1]; ovariectomised, estradiol-treated rats): did not seem to be exacerbated | time at which maximum plasma concentration was reached ([2]; 30 mg/kg SC): > 24 h | bioavailability (SC vs IV total exposure over 10 days) ([2]; 30 mg/kg SC vs IV): 80% | half-life ([2]; both sexes, sc, 30 mg/kg, Subcutaneous): ~124 h | AUC(0-t) [2, 5]: 2460 µg·h/mL | Cmax [2, 5]: 13400 ng/mL | Tmax [2, 5]: 72 h | AUC(0-inf) ([2]; both sexes, sc, Subcutaneous, 30 mg/kg, read-out: AUCinf): 3520 µg·h/mL | AUC(0-t) ([2]; iv, 30 mg/kg): 3140 µg·h/mL | Cmax ([2]; iv, 30 mg/kg): 112000 ng/mL | Tmax ([2]; iv, 30 mg/kg): 1 h | half-life ([2]; iv, 30 mg/kg): 49.7 h | AUC(0-inf) ([2]; iv, 30 mg/kg, read-out: AUCinf): 3340 µg·h/mL | half-life ([2]; female, sc, 30 mg/kg, animal 9707, F, 30 mg/kg SC single dose): 171 h | AUC(0-t) [2, 6]: 2180 µg·h/mL | Cmax [2, 6]: 10900 ng/mL | Tmax [2, 6]: 48 h | AUC(0-inf) ([2]; female, animal 9707, F, 30 mg/kg SC single dose, read-out: AUCINF_obs): 3760 µg·h/mL | half-life ([2]; male, sc, 30 mg/kg, animal 9697, M, 30 mg/kg SC single dose): 76.2 h | AUC(0-t) [2, 7]: 2740 µg·h/mL | Cmax [2, 7]: 15900 ng/mL | Tmax [2, 7]: 96 h | AUC(0-inf) ([2]; male, animal 9697, M, 30 mg/kg SC single dose, read-out: AUCINF_obs): 3280 µg·h/mL | MEC90 [3]: 0.015 µg/mL | MIC (C. albicans; strain 98-17): 0.06 µg/mL | MIC (C. albicans; strain 98-210): 0.03 µg/mL | MIC (C. albicans; strain 580): 0.06 µg/mL | MIC (C. albicans; strain K-1): 0.06 µg/mL | local (injection site) tolerability ([4]; single 30 mg/kg SC (100 mg/mL)): no sign of irritation or local (injection site) adverse toxicity | bodyweight and food consumption ([4]; single 30 mg/kg SC, 10 days follow-up): no effect on bodyweight or food consumption
